Where a SMILES comes first, the peptide text is derived from it.
Key:
[1] = Solubility in aqueous buffer; type: physicochemical; conditions: pH 7.2, aqueous buffer
[2] = Stability of the maleimide moiety of MAL-FMS-NHS in aqueous solutions (GSH/DTNB); type: physicochemical
Procedure: MAL-FMS-NHS (1 mM) was incubated at room temperature in H2O (pH 6.0), in 0.007 M acetic acid (pH˜4.0), in 0.1 M phosphate buffer (pH 7.4), and in 0.1 M NaHCO3 (pH 8.5). At the indicated time points, aliquots were allowed to react with a slight excess of GSH (15 min at pH 7.2) and the concentration of unreacted GSH was determined with 5,5-dithiobis(2-nitrobenzoic acid) (DTNB).
Stability of the MAL-functional moiety in aqueous solutions. In order to test the stability of the maleimide function of MAL-FMS-NHS in aqueous solutions at different pH values, MAL-FMS-NHS (1 mM) was incubated at room temperature in water (pH 6.0), in 0.007M acetic acid (pH˜4.0), in 0.1M phosphate buffer (pH 7.4), and in 0.1M NaHCO3 (pH 8.5). At several time points, aliquots were allowed to react with a slight excess of reduced glutathione (GSH) (15 min at pH 7.2) and the concentration of unreacted GSH was determined with DTNB (5,5′-dithio-bis-2-nitrobenzoic acid, Ellman's reagent), by measuring the absorbance of the produced yellow colored 5-thio-2-nitrobenzoic acid (TNB) at 405 or 412 nm.

[3] = physchem; conditions: buffer, pH 8.5

Compound | solubility [1] [µg/mL] | half-life at 1 mM ([2]; 0.1 M NaHCO3 aqueous solution, 0.1M NaHCO3 pH 8.5, room temperature, read-out: t1/2 of destruction of the maleimide moiety (converted)) [h] | stability of the maleimide function ([2]; pH 4 to 6, over a day or two) | stability of the maleimide function ([2]; pH 7.2) | half-life [3] [h]
O=C(CCN1C(=O)C=CC1=O)Nc1ccc2c(c1)C(COC(=O)ON1C(=O)CCC1=O)c1cc(S(=O)(=O)O)ccc1-2 (centres unmarked) [MAL-FMS-NHS, N-[2-(maleimido-propionylamino)-7-sulfo-fluoren-9-yl-methoxycarbonyloxy]-succinimide] | > 10000 | 2.7 ± 0.3 | fully stable | stable over a period of several hours | –
CC[C@H](C)[C@H](NC(=O)[C@H](CCC(=O)O)NC(=O)[C@H](C)NC(=O)OCC1c2cc(NC(=O)CCN3C(=O)C=CC3=O)ccc2-c2ccc(S(=O)(=O)O)cc21)C(=O)N[C@@H](CO)C(=O)NCC(=O)N[C@@H](CCC(N)=O)C(=O)N[C@@H](CC(C)C)C(=O)N[C@@H](CO)C(=O)N[C@@H](Cc1ccc(O)cc1)C(=O)N[C@H](C(=O)N[C@@H](CCCNC(=N)N)C(=O)N[C@@H](CC(=O)O)C(=O)N[C@H](C(=O)N[C@@H](CC(N)=O)C(=O)N[C@@H](CO)C(=O)N[C@@H](Cc1c[nH]c2ccccc12)C(=O)N[C@@H](CCC(N)=O)C(=O)N[C@@H](Cc1c[nH]cn1)C(=O)N[C@H](C(=O)N[C@@H](Cc1c[nH]c2ccccc12)C(=O)N[C@H](C(=O)N[C@@H](CC(N)=O)C(=O)N[C@H](C(=O)N[C@@H](CO)C(=O)N[C@H](C(=O)N[C@@H](CCC(=O)O)C(=O)N[C@@H](CC(N)=O)C(=O)O)[C@@H](C)CC)C(C)C)[C@@H](C)O)[C@@H](C)CC)C(C)C)C(C)C (some centres unmarked) [Mal-FMS-Peptide 27] (HELM PEPTIDE1{[O=C1C=CC(=O)N1CCC(=O)[*:2]].[O=C(OCC1c2cc(N[*:1])ccc2-c2ccc(S(=O)(=O)O)cc21)[*:2]].A.E.I.S.G.Q.L.S.Y.V.R.D.V.N.S.W.Q.H.I.W.T.N.V.S.I.E.N}$$$$V2.0; N-terminus and C-terminus assumed) | – | – | – | – | 8.4

Reference: patent US9433683B2, “Reversible pegylated drugs” (Yeda Research and Development Co., Ltd., priority 2003, dated 2016)
